These results are taken from patent US20250101023A1, “HETEROARYL DERIVATIVE AND USES THEREOF” (IUCF-HYU (INDUSTRY-UNIVERSITY COOPERATION FOUNDATION …, priority 2022, published 2025).

Molecules are shown by their SMILES. Read-outs that look alike come from different tables or passages of the source.

One data set concerns the target CDK12/CyclinK (Homo sapiens (Human), UniProt Q9NYV4). Description: CDK12/cyclinK enzyme activity. The following applies: in vitro. The class given is biochemical.
For data set [1], the system named is Pol II CTD (Ser2) phosphorylation. Put plainly: Western blot, Pol II CTD Ser2 phosphorylation. Particulars: SK-Br3 and HCC1954 cell lines, 40 and 200 nM, 2 hours. It counts as cell-based. (In general: In western blotting, separated proteins are transferred to a membrane and probed.)
Another data set relates to cyclinK. Description: Western blot, cyclinK degradation. The class given is cell-based. Particulars: SK-Br3 and HCC1954 cell lines, 40 and 200 nM, 2 hours.
In the next data set the test system is IRS1 and WNT1. Description: Western blot, CDK12 downstream gene expression. The class given is cell-based. The following applies: SK-Br3 and HCC1954 cell lines, 40 and 200 nM, 24 hours.
Data set [2] can be described thus: Liver microsomal metabolic stability. Particulars: for Liver microsomal metabolic stability (% remaining amount) Dog: dog liver microsomes; for Liver microsomal metabolic stability (% remaining amount) Human: human liver microsomes; for Liver microsomal metabolic stability (% remaining amount) Mouse: mouse liver microsomes. The class given is in vitro ADME. On the procedure: (§1) 5 derivatives were evaluated for in vitro metabolic stability in liver microsomes from three different species (human, dog, mouse) and for inhibitory activity against 5 representative cytochrome P450 enzymes (CYPs)(Table 3). In terms of liver microsomal stability, the 2′-pyridyl group is more suitable than the α-methyl-4′-pyridyl group as the terminal aromatic group at position 6, and the aminopyrimidyl group is better than the aminopyridyl group as a substituent at position 2.
On the technique in general: Liver microsomes are a subcellular fraction often used to study metabolism.

The next data set addresses CYP1A2 (Homo sapiens (Human), UniProt P05177). Description: in vitro. The class given is in vitro ADME. As for the experimental part:
as §1

Another data set deals with CYP2C19 (Homo sapiens (Human), UniProt P33261). Description: CYP inhibitory activity. The class given is in vitro ADME. Particulars: read-out: CYP % activity at 10 μM concentration 2C19. On the procedure:
as §1

The target of the next data set is CYP2C9 (Homo sapiens (Human), UniProt P11712). Put plainly: CYP inhibitory activity. The class given is in vitro ADME. Particulars: read-out: CYP % activity at 10 μM concentration 2C9. As for the experimental part: as §1
Chain of CYP2C9 (P11712 whole entry): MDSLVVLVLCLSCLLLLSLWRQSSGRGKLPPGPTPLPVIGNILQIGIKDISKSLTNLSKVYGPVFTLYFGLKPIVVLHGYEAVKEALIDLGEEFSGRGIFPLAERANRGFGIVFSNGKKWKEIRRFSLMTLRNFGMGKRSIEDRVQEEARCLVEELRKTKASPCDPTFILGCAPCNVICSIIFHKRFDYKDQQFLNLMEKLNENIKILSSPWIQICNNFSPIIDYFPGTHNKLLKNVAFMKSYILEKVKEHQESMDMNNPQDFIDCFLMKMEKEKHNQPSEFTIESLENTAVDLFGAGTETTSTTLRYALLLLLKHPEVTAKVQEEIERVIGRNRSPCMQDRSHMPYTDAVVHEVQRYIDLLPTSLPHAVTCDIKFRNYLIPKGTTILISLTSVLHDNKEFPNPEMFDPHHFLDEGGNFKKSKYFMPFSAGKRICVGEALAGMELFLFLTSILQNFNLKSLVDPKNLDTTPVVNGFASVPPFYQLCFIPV
A further data set deals with CYP2D6 (Homo sapiens (Human), UniProt P10635). Put plainly: CYP inhibitory activity. Particulars: read-out: CYP % activity at 10 μM concentration 2D6. It counts as in vitro ADME. On the procedure:
as §1

In another data set the target is CYP3A4 (Homo sapiens (Human), UniProt P08684). Description: CYP inhibitory activity. It counts as in vitro ADME. Particulars: read-out: CYP % activity at 10 μM concentration 3A4. As for the experimental part: as §1
Chain of CYP3A4 (P08684 whole entry): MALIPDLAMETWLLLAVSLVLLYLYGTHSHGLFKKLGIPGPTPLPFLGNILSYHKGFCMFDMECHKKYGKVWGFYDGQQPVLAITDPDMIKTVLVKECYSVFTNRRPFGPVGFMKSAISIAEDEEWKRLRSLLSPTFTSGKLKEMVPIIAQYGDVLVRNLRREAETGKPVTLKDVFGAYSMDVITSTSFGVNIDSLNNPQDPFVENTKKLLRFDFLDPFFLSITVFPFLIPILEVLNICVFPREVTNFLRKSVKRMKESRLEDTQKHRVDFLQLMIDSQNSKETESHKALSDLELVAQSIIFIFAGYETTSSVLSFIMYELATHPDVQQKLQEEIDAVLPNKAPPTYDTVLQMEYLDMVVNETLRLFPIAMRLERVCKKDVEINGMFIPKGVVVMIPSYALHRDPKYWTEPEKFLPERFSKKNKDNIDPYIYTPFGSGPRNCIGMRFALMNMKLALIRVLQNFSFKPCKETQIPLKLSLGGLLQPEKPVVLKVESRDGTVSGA
In another data set the test system is HCC1954 cells. Description: Breast cancer growth inhibitory activity (Cell-titer Glo, 72 h). It counts as cell-based. Particulars: Homo sapiens. On the procedure:
(§2) Breast cancer cells in a culture solution (100 μL volume/well, 2,500 SK-Br3 cells/well, 1,000 HCC-1954 cells/well) were seeded into a tissue culture-treated 96-well plate and cultured in a cell incubator for 24 hours. […] Cell-titer Glo™ reagent (50 μL of a 5-fold diluted solution, Promega) was added to each well, and luminescence signals were measured using an Envision™ plate reader (PerkinElmer, USA). Titration curve fitting and IC50 values were generated using Prism 7.0 s/w (GraphPad, San Diego, USA).

In another data set the test system is SK-Br3 cells. Described as above. It counts as cell-based. Particulars: Homo sapiens, SK-BR-3. On the procedure:
as §2

Data set [3] in a line: Body weight in SK-Br3 xenograft model. It counts as in vivo, mouse. Particulars: 20 mg/kg, i.p. twice a week. As for the experimental part:
A mouse efficacy experiment was conducted after obtaining approval from the Laboratory Animal Ethics Committee of GenNBio (Review No.: GN-IACUC-Research 22-02-07). SK-Br3 and HCC-1954 cells (1×10^6 cells each) mixed with Matrigel (BD Biosciences) were […] injected into 5-week-old female Balb/c nude mice (Orient Bio, Seongnam, Republic of Korea). After tumors reached a size of about 100 mm^3, the compound, trastuzumab (20 mg/kg), and the like were intraperitoneally injected into mice (n=8 per group)(vehicle: 8% DMSO, 4% Tween-80, 88% PBS). The tumor size was measured twice weekly for about 4 weeks and calculated as follows. Volume (mm^3)=(a×b^2)/2; “a”, maximum diameter; “b”, vertical diameter

Chain of CDK12/CyclinK (Q9NYV4 whole entry): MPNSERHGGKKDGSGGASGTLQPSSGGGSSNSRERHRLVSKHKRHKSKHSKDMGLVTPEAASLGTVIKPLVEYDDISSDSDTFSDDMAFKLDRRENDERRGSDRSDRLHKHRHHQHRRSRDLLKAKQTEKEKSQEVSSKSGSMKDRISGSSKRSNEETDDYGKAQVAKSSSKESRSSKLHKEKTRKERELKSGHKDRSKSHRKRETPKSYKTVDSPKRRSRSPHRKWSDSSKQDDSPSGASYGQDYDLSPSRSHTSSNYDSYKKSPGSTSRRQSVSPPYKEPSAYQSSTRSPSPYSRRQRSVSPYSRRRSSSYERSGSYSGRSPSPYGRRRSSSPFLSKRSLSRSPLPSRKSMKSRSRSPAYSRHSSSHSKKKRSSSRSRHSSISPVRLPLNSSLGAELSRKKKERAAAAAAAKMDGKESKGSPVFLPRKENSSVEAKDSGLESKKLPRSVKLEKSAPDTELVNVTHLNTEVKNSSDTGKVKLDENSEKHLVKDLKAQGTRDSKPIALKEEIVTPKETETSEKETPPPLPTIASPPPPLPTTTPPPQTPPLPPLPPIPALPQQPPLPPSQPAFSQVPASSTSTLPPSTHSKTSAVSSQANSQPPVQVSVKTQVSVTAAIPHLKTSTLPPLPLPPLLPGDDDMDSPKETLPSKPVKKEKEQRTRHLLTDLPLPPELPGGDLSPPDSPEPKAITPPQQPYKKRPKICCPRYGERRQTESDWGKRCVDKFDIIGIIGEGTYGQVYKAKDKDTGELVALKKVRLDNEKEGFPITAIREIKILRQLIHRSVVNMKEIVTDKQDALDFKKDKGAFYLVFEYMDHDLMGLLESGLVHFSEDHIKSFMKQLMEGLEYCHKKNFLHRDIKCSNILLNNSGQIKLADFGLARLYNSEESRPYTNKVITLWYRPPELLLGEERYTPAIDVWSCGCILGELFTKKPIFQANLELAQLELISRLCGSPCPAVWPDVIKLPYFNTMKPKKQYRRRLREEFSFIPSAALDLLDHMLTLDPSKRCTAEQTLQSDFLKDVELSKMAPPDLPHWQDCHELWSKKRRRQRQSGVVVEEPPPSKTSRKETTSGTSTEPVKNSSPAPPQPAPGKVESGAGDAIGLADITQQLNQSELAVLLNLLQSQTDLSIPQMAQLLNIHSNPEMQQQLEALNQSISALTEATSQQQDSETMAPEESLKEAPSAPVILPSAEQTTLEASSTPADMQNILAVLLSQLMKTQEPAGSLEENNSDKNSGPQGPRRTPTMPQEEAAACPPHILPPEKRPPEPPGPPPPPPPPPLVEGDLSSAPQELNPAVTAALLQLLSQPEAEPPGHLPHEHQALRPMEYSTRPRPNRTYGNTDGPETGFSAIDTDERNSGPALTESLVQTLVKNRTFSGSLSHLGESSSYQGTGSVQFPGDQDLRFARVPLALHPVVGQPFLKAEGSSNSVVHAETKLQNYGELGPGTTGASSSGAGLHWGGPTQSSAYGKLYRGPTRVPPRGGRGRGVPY
Chain of CDK12/CyclinK (O75909 whole entry partner): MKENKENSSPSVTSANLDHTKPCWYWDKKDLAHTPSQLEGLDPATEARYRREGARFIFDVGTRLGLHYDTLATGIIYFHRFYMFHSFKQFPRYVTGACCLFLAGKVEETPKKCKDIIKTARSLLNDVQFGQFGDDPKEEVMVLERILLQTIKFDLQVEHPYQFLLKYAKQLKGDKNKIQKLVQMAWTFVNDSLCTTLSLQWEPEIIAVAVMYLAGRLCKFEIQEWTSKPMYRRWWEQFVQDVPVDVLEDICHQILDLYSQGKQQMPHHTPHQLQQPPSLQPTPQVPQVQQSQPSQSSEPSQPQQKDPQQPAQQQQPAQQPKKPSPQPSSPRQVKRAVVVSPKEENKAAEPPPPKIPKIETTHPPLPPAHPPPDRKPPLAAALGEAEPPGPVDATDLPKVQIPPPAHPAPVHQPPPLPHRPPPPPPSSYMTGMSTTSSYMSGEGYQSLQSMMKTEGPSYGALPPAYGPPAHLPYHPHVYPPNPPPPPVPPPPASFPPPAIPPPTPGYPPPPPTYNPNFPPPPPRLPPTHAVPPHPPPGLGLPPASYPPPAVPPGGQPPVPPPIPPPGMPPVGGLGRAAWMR
Chain of CYP2D6 (P10635 whole entry): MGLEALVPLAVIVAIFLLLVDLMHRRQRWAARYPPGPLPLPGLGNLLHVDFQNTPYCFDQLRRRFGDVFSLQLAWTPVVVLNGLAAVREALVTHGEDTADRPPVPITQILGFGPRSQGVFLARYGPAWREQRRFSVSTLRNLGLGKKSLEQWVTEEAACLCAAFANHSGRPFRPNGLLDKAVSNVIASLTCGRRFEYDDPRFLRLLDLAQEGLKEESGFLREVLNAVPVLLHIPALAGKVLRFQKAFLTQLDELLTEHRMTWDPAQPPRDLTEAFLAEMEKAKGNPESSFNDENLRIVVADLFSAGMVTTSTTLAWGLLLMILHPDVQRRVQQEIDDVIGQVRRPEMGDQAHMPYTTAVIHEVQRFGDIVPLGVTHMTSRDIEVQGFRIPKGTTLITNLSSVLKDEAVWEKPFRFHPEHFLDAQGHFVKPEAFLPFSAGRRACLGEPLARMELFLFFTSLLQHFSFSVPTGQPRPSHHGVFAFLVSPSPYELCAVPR
Chain of CYP1A2 (P05177 whole entry): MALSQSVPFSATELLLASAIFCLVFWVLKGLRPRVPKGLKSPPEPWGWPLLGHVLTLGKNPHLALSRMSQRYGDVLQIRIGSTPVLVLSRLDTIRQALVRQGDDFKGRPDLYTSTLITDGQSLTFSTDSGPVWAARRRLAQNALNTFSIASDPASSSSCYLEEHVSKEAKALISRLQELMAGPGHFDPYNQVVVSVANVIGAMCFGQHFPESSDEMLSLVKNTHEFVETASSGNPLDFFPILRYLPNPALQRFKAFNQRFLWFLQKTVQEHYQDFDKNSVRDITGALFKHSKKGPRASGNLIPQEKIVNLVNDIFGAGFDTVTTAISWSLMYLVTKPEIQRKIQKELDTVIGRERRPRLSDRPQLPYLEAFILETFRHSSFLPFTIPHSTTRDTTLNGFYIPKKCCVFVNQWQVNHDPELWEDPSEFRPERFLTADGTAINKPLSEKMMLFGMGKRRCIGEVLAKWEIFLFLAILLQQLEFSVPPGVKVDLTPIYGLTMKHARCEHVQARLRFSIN
Chain of CYP2C19 (P33261 whole entry): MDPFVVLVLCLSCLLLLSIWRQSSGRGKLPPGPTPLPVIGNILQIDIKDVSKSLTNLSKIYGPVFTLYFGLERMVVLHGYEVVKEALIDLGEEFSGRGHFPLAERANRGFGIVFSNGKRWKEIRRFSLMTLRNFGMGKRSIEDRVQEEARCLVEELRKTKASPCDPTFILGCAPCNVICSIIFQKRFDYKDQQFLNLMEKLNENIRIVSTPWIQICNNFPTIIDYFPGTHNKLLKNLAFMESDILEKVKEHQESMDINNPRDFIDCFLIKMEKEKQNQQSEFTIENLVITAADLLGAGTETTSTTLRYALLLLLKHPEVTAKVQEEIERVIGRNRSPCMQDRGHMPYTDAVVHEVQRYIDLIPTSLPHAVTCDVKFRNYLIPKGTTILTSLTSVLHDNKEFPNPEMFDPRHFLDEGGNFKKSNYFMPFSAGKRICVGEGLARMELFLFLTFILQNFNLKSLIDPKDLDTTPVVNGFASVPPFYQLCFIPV

By IC50 is commonly meant the concentration needed to halve the response being measured. A high value points to lower potency. For `CCn1cnc2c(NCc3ccc(-c4ccccn4)nc3)nc(-c3cnc(N)nc3)nc21` [Example 54, N-([2,2′-bipyridin]-5-ylmethyl)-2-(2-aminopyrimidin-5-yl)-9-ethyl-9H-purin-6-amine], the IC50 at CDK12/CyclinK was determined as 0.077 µM. The “Pol II CTD (Ser2) phosphorylation” value in [1] was “inhibited Pol II CTD (Ser2) phosphorylation”; in data set [1] (listed as Compound 54) it was “strong dose-dependent suppression of Pol II phosphorylation”. Also, the cyclinK degradation result with cyclinK is given as “induced cyclinK degradation”; in the data set with cyclinK (listed as Compound 54), “cyclinK levels were greatly suppressed in a dose-dependent manner”. Also, the “expression of IRS1 and WNT1” value is “inhibited the expression of IRS1 and WNT1” in the data set with IRS1 and WNT1; “strongly suppressed” with IRS1 and WNT1 (listed as Compound 54). In addition, the “Liver microsomal metabolic stability (% remaining amount) Dog” value in data set [2] was 67.6%. The “Liver microsomal metabolic stability (% remaining amount) Human” value in [2] is 100%. Further, in data set [2], the “Liver microsomal metabolic stability (% remaining amount) Mouse” value is reported as 85.0%. The activity at 10 µM at CYP1A2 was determined as 87.6%; at CYP2C19 it was 72.6%; at CYP2C9, 81.6%; at CYP2D6, 92.1%; on CYP3A4, 92.8%.

Consider `CCn1cnc2c(NCc3ccc(-c4ccnc(C)c4)nc3)nc(-c3cncnc3)nc21` [Example 51, 9-ethyl-N-((2′-methyl-[2,4′-bipyridin]-5-yl)methyl)-2-(pyrimidin-5-yl)-9H-purin-6-amine], for which inhibition on CDK12/CyclinK was half-maximal at 0.056 µM (IC50). The GI50 stood at 0.156 µM in the data set on HCC1954 cells (72 hours, read-out: HCC1954 (GI50/μM)) and 0.192 µM in the data set with SK-Br3 cells (72 hours, read-out: SK-Br3 (GI50/μM)). In addition, the “Liver microsomal metabolic stability (% remaining amount) Dog” value in data set [2] came out at 79.5%. For the same molecule, in data set [2], the “Liver microsomal metabolic stability (% remaining amount) Human” value is reported as 27.3%. In data set [2], the “Liver microsomal metabolic stability (% remaining amount) Mouse” value stood at 34.0%. Also, the activity at 10 µM on CYP1A2 is 68.6%; on CYP2C19, 73.9%; at CYP2C9, 67.5%; at CYP2D6, 88.8%; at CYP3A4, 31.8%.

In the case of `CCc1cnn2c(NCc3ccc[n+]([O-])c3)cc(N3CCCC[C@H]3CCO)nc12` [Dinaciclib, reference compound], the GI50 with HCC1954 cells (read-out: HCC1954 GI50) and with SK-Br3 cells (read-out: SK-Br3 GI50) was 0.012 µM throughout. Moreover, the mouse body weight result in data set [3] is “toxicity with a decrease in body weight in mice”.
